Patent US12195427B2, “MASP-2 inhibitors and methods of use” (priority 2018, dated 2025)
Counter-ions that a name gives are not always drawn. Each block holds one compound with its values, some of them ahead of it.

Biological target: MASP-2 CCP2-SP (Homo sapiens (Human), UniProt O00187)
Assay: MASP-2 co-crystallization, X-ray crystallography and structure analysis (H-bonds, van der Waals contacts);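 for Ligand-pharmacophore element distance, pharmacophore element C2: distance from averaged pharmacophore element to bound ligand; missing value means element absent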;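 for Ligand-pharmacophore element distance, pharmacophore element C3: distance from averaged pharmacophore element to bound ligand; missing value means element absent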;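 for Ligand-pharmacophore element distance, pharmacophore element C4: distance from averaged pharmacophore element to bound ligand; missing value means element absent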;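 for Ligand-pharmacophore element distance, pharmacophore element C5: distance from averaged pharmacophore element to bound ligand; missing value means element absent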
Parameters: van der Waals contact distance, MASP-2 HIS 483 atom CD2 / van der Waals contact distance, MASP-2 HIS 483 atom NE2 / van der Waals contact distance, SER 654 C to compound atom / van der Waals contact distance, SER 654 O to compound atom / van der Waals contact distance, TRP 655 C to compound atom / van der Waals contact distance, MASP-2 GLY 528 atom CA / van der Waals contact distance TRP 655 atom CZ3 / van der Waals contact distance TRP 655 atom N / van der Waals contact distance TRP 655 atom CE3 / van der Waals contact distance GLY 656 atom C / van der Waals contact distance GLY 656 atom CA / van der Waals contact distance GLY 656 atom O / van der Waals contact distance, MASP-2 TYR 607 atom CD1 / van der Waals contact distance, MASP-2 PRO 606 atom O / d(C3,CA1) / d(CA1,N1)2 / d(H4,O1) / d(H4,O2) / d(O1,O2) / d(CA1,O2) / d(CA6,O1) / d(CA6,O2) / d(CA1,C5) / d(O2,H3) / d(N2,C2) / d(CA5,N2) / d(N2,C4) / d(N2,C6) / d(N2,CA3) / d(N2,O3) / d(O4,H2): unit not given beside the values
Settings: for H-bond distance to MASP-2 ASP 627 atom OD1: ASP 627 OD1; for H-bond distance to MASP-2 GLY 656 atom N: GLY 656 N; for H-bond distance to MASP-2 SER 628 atom OG: SER 628 OG; for H-bond distance to MASP-2 SER 654 atom O: SER 654 O; for H-bond distance to MASP-2 SER 657 atom O: SER 657 O; for van der Waals contact distance, MASP-2 HIS 483 atom CD2: Table A2-1; for van der Waals contact distance, VAL 653 CG1 to compound atom: Table A2-11
In short: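 Inhibitor complexes were obtained by soaking crystals of E. coli-expressed human MASP-2 CCP2-SP constructs, then flash-cooling in liquid nitrogen. Structures solved by molecular replacement (1Q3X search model) from synchrotron diffraction; where several poses existed, only one was analyzed, and nonbonded contacts listed can include H-bonds.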

[1] = Table A5-1 pharmacophore: distance between elements, S2/S1 region
[2] = Table A5-2 pharmacophore distance, S3/S4 region
[3] = Table A7-1, between pharmacophore elements of the bound compound
[4] = Table A8-6, nearest protein atom in cell to the left

MASP-2 CCP2-SP, sequence (O00187 445-686): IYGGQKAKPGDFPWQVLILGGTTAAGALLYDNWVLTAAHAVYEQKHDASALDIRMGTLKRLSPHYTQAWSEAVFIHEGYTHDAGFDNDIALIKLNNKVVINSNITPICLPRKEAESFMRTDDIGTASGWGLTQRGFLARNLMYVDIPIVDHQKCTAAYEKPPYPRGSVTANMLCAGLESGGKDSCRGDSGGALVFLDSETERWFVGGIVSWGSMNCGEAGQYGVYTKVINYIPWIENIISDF
MASP-2 CCP2-SP, sequence (O00187 364-432 partner): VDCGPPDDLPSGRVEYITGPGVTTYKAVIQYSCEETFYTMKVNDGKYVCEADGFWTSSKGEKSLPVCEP

Compound: C[C@H](NC(=O)[C@H](N)C1Cc2ccccc2C1)C(=O)NCc1ccc2c(N)nccc2c1 [compound 1088, (S)-2-((R)-2-Amino-2-(2,3-dihydro-1H-inden-2-yl)acetamido)-N-((1-aminoisoquinolin-6-yl)methyl)propanamide Dihydrochloride]
H-bond distance to MASP-2 ASP 627 atom OD1 (Table A1 (H-Bonds)): 2.91 | H-bond distance to MASP-2 ASP 627 atom OD2 (Table A1 (H-Bonds), ASP 627 OD2): 3.16 | H-bond distance to MASP-2 GLY 656 atom N (Table A1 (H-Bonds)): 3.22 | H-bond distance to MASP-2 SER 628 atom OG (Table A1 (H-Bonds)): 3.16 | H-bond distance to MASP-2 SER 654 atom O (Table A1 (H-Bonds)): 2.89 | van der Waals contact distance, MASP-2 PRO 606 atom C (Table A2-4): 3.89 | van der Waals contact distance, MASP-2 TYR 607 atom CD1 (Table A2-4): 3.82 | van der Waals contact distance, MASP-2 amino acid atom to compound atom (Table A2-5: TYR 607 (CE1, CE2, OH), PRO 608 (CD, CG), SER 611 (CA)): 3.73 | van der Waals contact distance, MASP-2 amino acid atom to compound atom (Table A2-9, ARG 630, AA atoms CG, CZ): 3.79 | van der Waals contact distance SER 657 atom C (Table A2-14, MASP-2 SER 657 C, columns c12-c13 (inferred)): 3.64

H-bond distance to MASP-2 ASP 627 atom OD1 (Table A1 (H-Bonds)): 2.79 | H-bond distance to MASP-2 GLN 665 atom OE1 (Table A1 (H-Bonds), GLN 665 OE1): 2.76 | H-bond distance to MASP-2 GLY 656 atom N (Table A1 (H-Bonds)): 2.93 | H-bond distance to MASP-2 SER 628 atom OG (Table A1 (H-Bonds)): 2.86 | H-bond distance to MASP-2 SER 654 atom O (Table A1 (H-Bonds)): 2.84 | H-bond distance to MASP-2 SER 657 atom O (Table A1 (H-Bonds)): 2.92 | van der Waals contact distance, MASP-2 HIS 483 atom CD2: 3.75 | van der Waals contact distance, MASP-2 PHE 529 atom CE1 (Table A2-3): 3.52 | van der Waals contact distance, MASP-2 PRO 606 atom C (Table A2-4): 3.86 | van der Waals contact distance, MASP-2 amino acid atom to compound atom (Table A2-9 second part, ARG 630, AA atoms N, NE, NH1): 3.69 | van der Waals contact distance, VAL 653 CG1 to compound atom: 3.9 | van der Waals contact distance GLY 656 atom C (Table A2-13, MASP-2 GLY 656 C): 3.54 | Ligand-pharmacophore element distance, pharmacophore element C2 (Table A4-1, element C2): 3.15 | Ligand-pharmacophore element distance, pharmacophore element C3 (Table A4-1, element C3): 0 | Ligand-pharmacophore element distance, pharmacophore element C4 (Table A4-1, element C4): 0 | Ligand-pharmacophore element distance, pharmacophore element C5 (Table A4-1, element C5): 0 | Ligand-pharmacophore element distance, pharmacophore element C6 (Table A4-1, element C6): 0 | Ligand-pharmacophore element distance, pharmacophore element C7 (Table A4-1, element C7): 0 | Ligand-pharmacophore element distance, pharmacophore element CA1 (Table A4-1, element CA1): 0.35 | Ligand-pharmacophore element distance, pharmacophore element CA2 (Table A4-1, element CA2): 0 | Ligand-pharmacophore element distance, pharmacophore element CA3 (Table A4-1, element CA3): 0 | Ligand-pharmacophore element distance, pharmacophore element CA4 (Table A4-1, element CA4): 0 | Ligand-pharmacophore element distance, pharmacophore element CA5 (Table A4-1, element CA5): 0.67 | Ligand-pharmacophore element distance, pharmacophore element CA6 (Table A4-1, element CA6): 0 | Ligand-pharmacophore element distance, pharmacophore element H1 (Table A4-2, element H1): 0 | Ligand-pharmacophore element distance, pharmacophore element H2 (Table A4-2, element H2): 0 | Ligand-pharmacophore element distance, pharmacophore element H3 (Table A4-2, element H3): 1.34 | Ligand-pharmacophore element distance, pharmacophore element H4 (Table A4-2, element H4): 3.79 | Ligand-pharmacophore element distance, pharmacophore element N1 (Table A4-2, element N1): 1.8 | Ligand-pharmacophore element distance, pharmacophore element N2 (Table A4-2, element N2): 1.8 | Ligand-pharmacophore element distance, pharmacophore element O1 (Table A4-2, element O1): 0.39 | Ligand-pharmacophore element distance, pharmacophore element O2 (Table A4-2, element O2): 0.58 | Ligand-pharmacophore element distance, pharmacophore element O3 (Table A4-2, element O3): 0 | Ligand-pharmacophore element distance, pharmacophore element O4 (Table A4-2, element O4): 0 | d(CA1,N1) [1]: 3.60 | d(CA1,O1) [1]: 4.47 | d(CA1,O2) [1]: 4.37 | d(H4,O1) [1]: 5.00 | d(H4,O2) [1]: 4.63 | d(O1,O2) [1]: 3.49 | d(CA5,N2) [2]: 5.54 | d(N2,C2) [2]: 2.76 | d(O2,H3) [2]: 2.83 | d(O2,N2) [2]: 3.19 | a(CA1, O1, O2) (Table A6-1 pharmacophore angle): 111.77 | a(O1, O2, H4) (Table A6-1 pharmacophore angle): 137.67 | A(N1, CA1, O1) a) (Table A6-1 pharmacophore angle, all compounds with protonatable center N1 except Methyl-amino-pyridine): 164.78 | a(O1, O2, H3) (Table A6-2 pharmacophore angle): 122.63 | a(O1, O2, N2) (Table A6-2 pharmacophore angle): 127.76 | a(O2, N2, C2) (Table A6-2 pharmacophore angle): 110.31 | Pharmacophore torsion angle a(H4, O1, O2, H3) [3]: 104.70 | Pharmacophore torsion angle a(H4, O1, O2, N2) [3]: 133.45 | Pharmacophore torsion angle a(N1, CA1, O2, H4) [3]: −139.56 | Pharmacophore torsion angle a(O1, H4, O2, CA1) [3]: −65.27 | Pharmacophore torsion angle a(O1, O2, N2, C2) [3]: 95.54 | Pharmacophore torsion angle a(O1, O2, N2, CA5) (Table A7-2, between pharmacophore elements of the bound compound): 145.95 | Pharmacophore protein distance to MET_658 (first MET_658 column) (Table A8-6, 6th residue column, nearest protein atom in cell to the left): 2.85 | Pharmacophore protein distance to MET_658 (second MET_658 column) (Table A8-6, 9th residue column, nearest protein atom in cell to the left): 3.11 | Pharmacophore protein distance to GLY_528 [4]: 3.51 | Pharmacophore protein distance to PHE_529 [4]: 2.98 | Pharmacophore protein distance to PRO_608 [4]: 4.05 | Pharmacophore protein distance to SER_611 [4]: 2.58 | Pharmacophore protein distance to TRP_655 (Table A8-6, pharmacophore elements C6, CA3, O3, H1, nearest protein atom in cell to the left): 3.31
Compound: N=C(N)c1ccc(CNC(=O)[C@@H]2CCN2C(=O)[C@H](NCC(=O)O)C2Cc3ccccc3C2)cc1 [compound 1129]

Compound: C[C@H](NC(=O)[C@@H](CCc1ccccc1)NCCCc1ccc(O)cc1)C(=O)NCc1ccc(C(=N)N)cc1 [compound 1145]
H-bond distance to MASP-2 GLY 656 atom N (Table A1 (H-Bonds)): 3.09 | H-bond distance to MASP-2 GLY 656 atom O (Table A1 (H-Bonds), GLY 656 O): 2.58 | H-bond distance to MASP-2 SER 628 atom O (Table A1 (H-Bonds), SER 628 O): 2.84 | H-bond distance to MASP-2 SER 654 atom O (Table A1 (H-Bonds)): 2.84 | H-bond distance to MASP-2 SER 657 atom O (Table A1 (H-Bonds)): 2.81 | van der Waals contact distance, MASP-2 HIS 483 atom CD2: 3.75 | van der Waals contact distance, MASP-2 PHE 529 atom CD1 (Table A2-3): 3.54 | van der Waals contact distance, MASP-2 TYR 607 atom CD2 (Table A2-4): 3.89 | van der Waals contact distance, VAL 653 CG1 to compound atom: 3.9 | van der Waals contact distance TRP 655 atom CE3 (Table A2-13, MASP-2 TRP 655 CE3, compound atom in line below): 3.49 | van der Waals contact distance TRP 655 atom N (Table A2-13, MASP-2 TRP 655 N): 3.79 | van der Waals contact distance, MASP-2 amino acid atom to compound atom (Table A2 section before Table A2-8): 3.85
